Reference: patent US5789440A, “5,6-dihydropyrone derivatives as protease inhibitors and antiviral agents” (Warner-Lambert Company, priority 1994, dated 1998)

biological target: T1, HIV-1 Protease (Human immunodeficiency virus type 1 group M subtype B, UniProt P04585); test: HIV protease inhibition (undecapeptide substrate cleavage, HPLC); assay type: biochemical; conditions: 37° C., 5 min, 40 μM substrate, pH 4.7, 2% DMSO, read-out: 50% INHIBITION CONCENTRATION
T1 construct: HIV-1 Protease; purchased Bachem Bioscience Inc
Procedure: 1.0 mM dithiothreitol (DTT) was prepared fresh daily in 0.1% polyethylene glycol (mw 8000) 80 mM NaOAc, 160 mM NaCl, 1.0 mM EDTA, and brought to pH 4.7 with HCl.
The enzyme is obtained from Bachem Bioscience Inc. The undiluted enzyme is thawed from -80° C. and diluted 50-fold with DTT buffer. The solution is always kept at 0° C. on ice water and used in the experiment within 20 minutes after thawing.
Substrate III from Bachem Bioscience Inc. is the undecapeptide H-His-Lys-Ala-Arg-Val-Leu-p-Nitrophenylalanine-Glu-Ala-Norleucine-Ser-NH2 (>97% purity). A 200 μM stock solution in DTT buffer is prepared and stored on ice. Substrate solution is prepared fresh daily.
10 mM inhibitor (I) in dimethyl sulfoxide (DMSO) is diluted to 200 μM with DTT buffer. From the 200 μM stock solution is made a 10 μM stock solution with 2% DMSO in DTT buffer. The two inhibitor solutions are used to make final [I] =100, 50, 20, 10, 5, 2, 1, 0.5 and 0 μM with 2% DMSO in DTT buffer in each reaction well (total inhibitor volume of 50 μl).
To each reaction well is added 20 μl of substrate (final concentration of 40 μM), 50 μl of inhibitor (at a concentration such that final dilution will produce the test concentration) and 20 μl of DTT buffer. The reaction plate (96 wells) is incubated at 37° C. for at least 5 minutes.
10 μl of the diluted protease is added to the reaction well while the reaction plate is shaking. Once shaken for 10 seconds, the plate is returned to the heating block at 37° C. (final reaction volume 100 μl.)
The reaction is incubated for 5 minutes at 37° C. The reaction is stopped by placing the reaction plate on the shaker and adding 20 μl of 10% trifluoroacetic acid (TFA) and shaking for 10 seconds. The amount of proteolysis is then determined by separation of noncleaved substrate and two cleaved products with reverse-phase HPLC, while measuring absorbance at 220 nm to determine the relative peak areas of the three components. The relative peak areas are used to calculate % conversion to product as a function of inhibitor concentration. The data are plotted as % Control (the ratio of % conversion in the presence and absence of inhibitor×100) versus inhibitor concentration and fitted with the equation Y=100/1+(X/IC50)^A, where IC50 is the inhibitor concentration at 50% inhibition and A is the slope of the inhibition curve.

Question: “5,6-Dihydro-4-hydroxy-3-[(3-methoxyphenyl)methyl]-6-phenyl-6-(2-phenylethyl)-2H-pyran-2-one [Example 119]” was tested. Which IC50 did it give?
Answer: 97 nM

Question: How did the IC50 turn out when `O=C1OC(c2ccccc2)CC(O)=C1SCCc1ccccc1` (racemic) [Example 2, 5,6-Dihydro-4-hydroxy-6-phenyl-3-[(2-phenylethyl)thio]-2H-pyran-2-one] was run?
Answer: 1900 nM

Question: `CC(C)CC1(c2ccccc2)CC(O)=C(SCc2ccccc2)C(=O)O1` (racemic) [Example 5, 5,6-Dihydro-4-hydroxy-6-(2-methylpropyl)-6-phenyl-3-[(phenylmethyl)thio]-2H-pyran-2-one] was tested. Which IC50 did it give?
Answer: 400 nM

Question: For `CCCCC1(c2ccc(-c3ccccc3)cc2)CC(O)=C(SCCc2ccccc2)C(=O)O1` (racemic) [Example 22, 6-[1,1'-Biphenyl]-4-yl-6-butyl-5,6-dihydro-4-hydroxy-3-[(2-phenylethyl)thio]-2H-pyran-2-one], which IC50 is on record?
Answer: 1100 nM

Question: For `CCCCC1(c2ccccc2)CC(O)=C(SCc2ccccc2)C(=O)O1` (racemic) [Example 29, 6-Butyl-5,6-dihydro-4-hydroxy-6-phenyl-3-[(phenylmethyl)thio]-2H-pyran-2-one], which IC50 is on record?
Answer: 260 nM

Question: For `CC(C)CCC1(c2ccccc2)CC(O)=C(SCc2ccccc2)C(=O)O1` (racemic) [Example 35, 5,6-Dihydro-4-hydroxy-6-(3-methylbutyl)-6-phenyl-3-[(phenylmethyl)thio]-2H-pyran-2-one], which IC50 is on record?
Answer: 120 nM

Question: For `O=C1OC(CCc2ccccc2)(c2ccccc2)CC(O)=C1SCc1ccccc1` (racemic) [Example 39, 5,6-Dihydro-4-hydroxy-6-phenyl-6-(2-phenylethyl)-3-[(phenylmethyl)thio]-2H-pyran-2-one], which IC50 is on record?
Answer: 50 nM

Question: Which IC50 does the source give for `O=C1OC(CCc2ccccc2)(c2ccccc2)CC(O)=C1SCCc1ccccc1` (racemic) [Example 40, 5,6-Dihydro-4-hydroxy-6-phenyl-6-(2-phenylethyl)-3-[(2-phenylethyl)thio]-2H-pyran-2-one] here?
Answer: 60 nM

Question: Which IC50 does the source give for `O=C1OC(CCc2ccc(Cl)c(Cl)c2)(c2ccccc2)CC(O)=C1SCc1ccccc1` (racemic) [Example 44, 6-[2-(3,4-Dichlorophenyl)ethyl]-5,6-dihydro-4-hydroxy-6-phenyl-3-[(phenylmethyl)thio]-2H-pyran-2-one] here?
Answer: 320 nM

Question: How did the IC50 turn out when `O=C1OC(CC2CCCC2)(c2ccccc2)CC(O)=C1SCc1ccccc1` (racemic) [Example 50, 6-Cyclopentylmethyl-5,6-dihydro-4-hydroxy-6-phenyl-3-[(phenylmethyl)thio]-2H-pyran-2-one] was run?
Answer: 88 nM

Question: `O=C1OC2(CCCc3ccccc32)CC(O)=C1SCc1ccccc1` (racemic) [Example 52, 3,4-Dihydro-4'-hydroxy-5'-[(phenylmethyl)thio]-spiro[naphthalene-1(2H),2'-[2H]pyran]-6'(3'H)-one] was tested. Which IC50 did it give?
Answer: 2000 nM

Question: `O=C(O)CCCCC1(c2ccccc2)CC(O)=C(SCCc2ccccc2)C(=O)O1` (racemic) [Example 56, 5-(3,6-Dihydro-4-hydroxy-6-oxo-2-phenyl-5-[(2-phenylethyl)thio]-2H-pyran-2-yl)pentanoic acid] was tested. Which IC50 did it give?
Answer: 5 nM

Question: `O=C1OC(c2ccccc2)(c2ccncc2)CC(O)=C1SCCc1ccccc1` (racemic) [Example 57, 5,6-Dihydro-4-hydroxy-6-phenyl-3-[(2-phenylethyl)thio]-6-pyridin-4-yl-2H-pyran-2-one] was tested. Which IC50 did it give?
Answer: 650 nM

Question: Which IC50 does the source give for `O=C(CCCC1(c2ccccc2)CC(O)=C(SCc2ccccc2)C(=O)O1)NCc1ccccc1` (racemic) [Example 61, N-Benzyl-4-(3,6-dihydro-4-hydroxy-6-oxo-2-phenyl-5-[(phenylmethyl)thio]-2H-pyran-2-yl)butyramide] here?
Answer: 220 nM

Question: Which IC50 does the source give for `O=C1OC(CCc2ccccc2)(c2ccccc2)CC(O)=C1Sc1ccccc1` (racemic) [Example 71, 5,6-Dihydro-4-hydroxy-6-phenyl-6-(2-phenylethyl)-3-phenylthio-2H-pyran-2-one] here?
Answer: 100 nM

Question: With `CC(C)CCC1(c2ccccc2)CC(O)=C(Sc2ccccc2C(C)C)C(=O)O1` (racemic) [Example 75, 5,6-Dihydro-4-hydroxy-6-(3-methylbutyl)-6-phenyl-3-(2-isopropyl-phenylthio)-2H-pyran-2-one] as the compound, how does the IC50 read?
Answer: 28 nM

Question: For `Cc1ccc(C)c(CSC2=C(O)CC(CCc3ccccc3)(c3ccccc3)OC2=O)c1` (racemic) [Example 90, 5,6-Dihydro-4-hydroxy-3-[(2,5-dimethylphenyl)methylthio]-6-phenyl-6-(2-phenylethyl)-2H-pyran-2-one], which IC50 is on record?
Answer: 140 nM

Question: With `O=C1OC(CCc2ccccc2)(c2ccccc2)CC(O)=C1SCc1ccccc1-c1ccccc1` (racemic) [Example 92, 3-(Biphenyl-2-ylmethylthio)-5,6-dihydro-4-hydroxy-6-phenyl-6-(2-phenylethyl)-2H-pyran-2-one] as the compound, how does the IC50 read?
Answer: 270 nM

Question: For `CC(C)CCC1(c2ccccc2)CC(O)=C(SCc2ccccc2Cl)C(=O)O1` (racemic) [Example 94, 3-(2-Chlorophenylmethylthio)-5,6-dihydro-4-hydroxy-6-(3-methylbutyl)-6-phenyl-2H-pyran-2-one], which IC50 is on record?
Answer: 220 nM

Question: For `CC(C)CCC1(c2ccccc2)CC(O)=C(SCc2ccccc2-c2ccccc2)C(=O)O1` (racemic) [Example 95, 3-(Biphen-2-ylmethylthio)-5,6-dihydro-4-hydroxy-6-(3-methylbutyl)-6-phenyl-2H-pyran-2-one], which IC50 is on record?
Answer: 1090 nM

Question: `O=C1OC(c2ccc(OCc3ccccc3)cc2)CC(O)=C1SCCc1ccccc1` (centres unmarked) [Example 14] was tested. Which IC50 did it give?
Answer: 2500 nM

Question: How did the IC50 turn out when `O=C1OC(c2ccccc2)(c2ccccc2)CC(O)=C1SCc1ccccc1` [Example 37, 5,6-Dihydro-4-hydroxy-6,6-diphenyl-3-[(phenylmethyl)thio]-2H-pyran-2-one] was run?
Answer: 260 nM

Question: For `O=C1OC(c2ccccc2)(c2ccccc2)CC(O)=C1CCCc1ccccc1` [Example 66, 5,6-Dihydro-4-hydroxy-6,6-diphenyl-3-(3-phenylpropyl)-2H-pyran-2-one], which IC50 is on record?
Answer: 390 nM

Question: With `Cc1cccc(SC2=C(O)CC(c3ccccc3)(c3ccccc3)OC2=O)c1` [Example 70, 5,6-Dihydro-4-hydroxy-3-(3-methylphenylthio)-6,6-diphenyl-2H-pyran-2-one] as the compound, how does the IC50 read?
Answer: 110 nM

Question: Which IC50 does the source give for `O=C1OC(CCc2ccccc2)(c2ccccc2)CC(O)=C1Cc1ccccc1C(F)(F)F` (centres unmarked) [Example 114, 5,6-Dihydro-4-hydroxy-6-phenyl-6-(2-phenylethyl)-3-[(2-trifluoromethylphenyl)methyl]-2H-pyran-2-one] here?
Answer: 79 nM

test system: HIV1iiib in H9 cells; test: Antiviral activity in H9 cells (acute HIV-1 infection, reverse transcriptase assay); assay type: cell-based; conditions: Human immunodeficiency virus 1, multiplicity of infection 0.01, 0.1% DMSO, read-out: Concentration for 50% Protection
Procedure: Using the general methods of Pauwels et al., (J. Virol. Methods, 16, 171-185, 1987) and Mann et al. (AIDS Research and Human Retroviruses, 253-255, 1989 (anti-viral assays of active HIV-1 infection were performed in the H9 cell line. Cultures were batch infected in 1 ml of RPM1 1640 media/10% fetal calf serum containing 10^5 infectious doses of HIV1iiib for an effective multiplicity of infection of 0.01. After 2 hours of viral absorption, cells were washed once and palted in 96-wellmicrotiter plates at a density of 10^4 cells per well. Test compounds were added to produce the desired concentration of drug and 0.1% DMSO in a final volume of 200 μl. Uninfected parallel cultures were maintained for XTT cytotoxicity assay at 7 days post infection. Cultures were tested for viral replication by reverse transcriptase assay at 4 and 7 days post infection.

Question: `CC(C)CCC1(c2ccccc2)CC(O)=C(SCc2ccccc2Cl)C(=O)O1` (racemic) [Example 94, 3-(2-Chlorophenylmethylthio)-5,6-dihydro-4-hydroxy-6-(3-methylbutyl)-6-phenyl-2H-pyran-2-one] was tested. Which EC50 did it give?
Answer: 29 µM

Question: With `CC(C)CCC1(c2ccccc2)CC(O)=C(SCc2ccccc2-c2ccccc2)C(=O)O1` (racemic) [Example 95, 3-(Biphen-2-ylmethylthio)-5,6-dihydro-4-hydroxy-6-(3-methylbutyl)-6-phenyl-2H-pyran-2-one] as the compound, how does the EC50 read?
Answer: 39 µM

Question: For `O=C1OC(CCc2ccccc2)(c2ccccc2)CC(O)=C1Cc1ccccc1C(F)(F)F` (centres unmarked) [Example 114, 5,6-Dihydro-4-hydroxy-6-phenyl-6-(2-phenylethyl)-3-[(2-trifluoromethylphenyl)methyl]-2H-pyran-2-one], which EC50 is on record?
Answer: 26 µM

same assay, conditions: multiplicity of infection 0.01, 0.1% DMSO, read-out: Concentration for 50% Protection

Question: Which EC50 does the source give for “5,6-Dihydro-4-hydroxy-3-[(3-methoxyphenyl)methyl]-6-phenyl-6-(2-phenylethyl)-2H-pyran-2-one [Example 119]” here?
Answer: 59 µM
